Common to all, as to experiment: In vitro competitive activity-based protein profiling (gel-based, FP-Rh or HT-01 probe)
Type in all cases: biochemical

The target in one assay is T1, ABHD6 (Mus musculus, UniProt Q8R2Y0).
T1 construct: Proteomes (mouse brain membrane fraction or cell lysates); from tissue; host or cells: mouse brain membrane fraction (or cell lysates, not specified)
T1 sequence (Q8R2Y0 1-336): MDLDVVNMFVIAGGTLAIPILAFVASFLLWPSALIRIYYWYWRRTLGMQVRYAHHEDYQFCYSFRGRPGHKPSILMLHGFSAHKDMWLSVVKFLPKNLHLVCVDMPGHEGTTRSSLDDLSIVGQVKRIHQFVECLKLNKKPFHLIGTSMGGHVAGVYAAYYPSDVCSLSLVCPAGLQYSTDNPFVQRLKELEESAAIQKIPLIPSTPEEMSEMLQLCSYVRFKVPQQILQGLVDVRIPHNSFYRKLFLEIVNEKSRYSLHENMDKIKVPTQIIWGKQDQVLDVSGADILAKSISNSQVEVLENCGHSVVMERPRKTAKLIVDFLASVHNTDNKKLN
The following applies: for inhibition at 1 µM: 1 μM inhibitor, read-out: % Inhibition at 1 μM, C = ABHD6; for inhibition at 10 µM: 10 μM inhibitor, read-out: % Inhibition at 10 μM, C = ABHD6; for IC50: mouse brain membrane fraction or cell lysates, 30 min preincubation at 37° C., read-out: Mouse (IC50 value, nM) ABHD6. A digest of the protocol: (§1)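 Read-out: fluorescent band intensity on SDS-PAGE gels, reporting remaining serine hydrolase activity. Before that, proteome (mouse brain membranes or cell lysates, 1.0 mg/mL) saw a range of inhibitor concentrations for 30 min at 37° C, followed by 30 min probe labelling (FP-Rh or HT-01).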

Another assay has as its target T2, FAAH (Mus musculus, UniProt O08914).
T2 construct: Proteomes (mouse brain membrane fraction or cell lysates); from tissue; host or cells: mouse brain membrane fraction (or cell lysates, not specified)
T2 sequence (O08914 1-579): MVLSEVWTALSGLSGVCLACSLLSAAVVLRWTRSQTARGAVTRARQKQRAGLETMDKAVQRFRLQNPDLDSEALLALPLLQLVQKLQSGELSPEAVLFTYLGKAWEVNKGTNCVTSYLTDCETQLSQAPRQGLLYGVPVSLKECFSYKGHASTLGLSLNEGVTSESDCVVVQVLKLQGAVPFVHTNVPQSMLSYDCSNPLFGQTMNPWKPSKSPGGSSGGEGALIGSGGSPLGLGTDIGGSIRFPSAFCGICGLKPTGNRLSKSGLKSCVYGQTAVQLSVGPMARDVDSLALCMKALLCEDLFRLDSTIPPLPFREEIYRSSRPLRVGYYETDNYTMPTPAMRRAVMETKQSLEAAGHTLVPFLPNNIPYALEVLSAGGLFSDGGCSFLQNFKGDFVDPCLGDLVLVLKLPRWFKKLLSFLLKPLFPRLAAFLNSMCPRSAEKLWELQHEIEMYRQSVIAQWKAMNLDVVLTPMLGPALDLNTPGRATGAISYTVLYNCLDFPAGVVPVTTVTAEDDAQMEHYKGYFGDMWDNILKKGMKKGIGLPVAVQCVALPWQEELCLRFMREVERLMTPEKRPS
Conditions: for inhibition at 1 µM: 1 μM inhibitor, read-out: % Inhibition at 1 μM, B = FAAH; for inhibition at 10 µM: 10 μM inhibitor, read-out: % Inhibition at 10 μM, B = FAAH; for IC50: mouse brain membrane fraction or cell lysates, 30 min preincubation at 37° C., read-out: Mouse (IC50 value, nM) FAAH. The method in brief:
as §1

The next assay has as its target T3, MAGL (Mus musculus, UniProt O35678).
T3 construct: Proteomes (mouse brain membrane fraction or cell lysates); from tissue; host or cells: mouse brain membrane fraction (or cell lysates, not specified)
T3 sequence (O35678 1-303): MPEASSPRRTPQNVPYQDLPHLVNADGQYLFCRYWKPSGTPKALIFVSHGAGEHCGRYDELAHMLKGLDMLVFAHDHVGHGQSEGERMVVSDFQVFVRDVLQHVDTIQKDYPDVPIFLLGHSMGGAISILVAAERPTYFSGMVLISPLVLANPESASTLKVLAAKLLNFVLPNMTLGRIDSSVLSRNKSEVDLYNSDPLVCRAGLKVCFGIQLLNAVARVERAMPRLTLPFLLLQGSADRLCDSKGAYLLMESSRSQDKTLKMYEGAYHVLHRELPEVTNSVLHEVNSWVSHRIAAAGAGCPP
Conditions: for inhibition at 1 µM: 1 μM inhibitor; for inhibition at 10 µM: 10 μM inhibitor; for IC50: mouse brain membrane fraction or cell lysates, 30 min preincubation at 37° C., read-out: Mouse (IC50 value, nM) MAGL. The method in brief: as §1

The next assay deals with T4, PLA2G7 (Mus musculus, UniProt Q60963).
T4 construct: Proteomes (mouse brain membrane fraction or cell lysates); from tissue; host or cells: mouse brain membrane fraction (or cell lysates, not specified)
T4 sequence (Q60963 22-440): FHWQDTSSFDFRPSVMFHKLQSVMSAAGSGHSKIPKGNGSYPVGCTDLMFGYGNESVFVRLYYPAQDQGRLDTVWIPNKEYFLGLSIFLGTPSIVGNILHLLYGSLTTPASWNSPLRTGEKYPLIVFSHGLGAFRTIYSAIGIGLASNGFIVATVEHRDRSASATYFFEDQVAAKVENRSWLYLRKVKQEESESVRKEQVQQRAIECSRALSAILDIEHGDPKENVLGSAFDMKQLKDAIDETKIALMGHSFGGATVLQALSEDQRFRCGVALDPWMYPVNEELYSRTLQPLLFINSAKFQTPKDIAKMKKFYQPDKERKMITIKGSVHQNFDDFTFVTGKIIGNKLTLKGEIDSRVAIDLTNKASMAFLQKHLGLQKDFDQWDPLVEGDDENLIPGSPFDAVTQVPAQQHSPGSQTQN
The following applies: for inhibition at 1 µM: 1 μM inhibitor, read-out: % Inhibition at 1 μM, D = PLA2G7; for inhibition at 10 µM: 10 μM inhibitor, read-out: % Inhibition at 10 μM, D = PLA2G7; for IC50: mouse brain membrane fraction or cell lysates, 30 min preincubation at 37° C. The method in brief: as §1

Each structure is given as a SMILES string. Read-outs that look alike come from different tables or passages of the source.

For orientation: inhibition means the percentage by which the read-out fell short of the control. With `O=C(c1cnn(C(=O)N2CCN(Cc3ccccn3)CC2)c1)N1CCCCC1` [Example 72, Piperidin-1-yl(1-(4-(pyridin-2-ylmethyl)piperazine-1-carbonyl)-1H-pyrazol-4-yl)methanone], the inhibition at 1 µM on ABHD6 was < 25%; on FAAH, < 25%; at MAGL it was < 25%; at PLA2G7, > 75%. Moreover, the inhibition at 10 µM at ABHD6 is > 75%; at FAAH, > 75%; at MAGL, < 25%; on PLA2G7, > 75%.

With `N#Cc1cnn(C(=O)N2CCN(Cc3ccc4ccccc4c3)CC2)c1` [Example 12, 1-(4-(Naphthalen-2-ylmethyl)piperazine-1-carbonyl)-1H-pyrazole-4-carbonitrile], the inhibition at 1 µM at ABHD6, on FAAH, on MAGL and on PLA2G7 was > 75% in each case. For the same molecule, the inhibition at 10 µM at ABHD6, on FAAH, at MAGL and at PLA2G7 was > 75% in each case.

For the molecule `O=C(N1CCN(Cc2ccccc2)CC1)n1cccn1` [Example 7, (4-Benzylpiperazin-1-yl)(1H-pyrazol-1-yl)methanone], the inhibition at 1 µM was < 25% on ABHD6, < 25% at FAAH, > 75% at MAGL and < 25% on PLA2G7. Besides, the inhibition at 10 µM is > 75% on ABHD6, > 75% on FAAH, > 75% at MAGL and < 25% at PLA2G7.

For orientation: IC50 means the concentration needed to halve the response being measured. Turning to `N#Cc1cnn(C(=O)N2CCCCCC2)c1` [Example 292, 1-(Azepane-1-carbonyl)-1H-pyrazole-4-carbonitrile], the inhibition at 1 µM is 25 to 75% at ABHD6 (gel-based competitive ABPP), > 75% at FAAH (gel-based competitive ABPP), 25 to 75% on MAGL (gel-based competitive ABPP) and < 25% at PLA2G7 (gel-based competitive ABPP). In addition, the inhibition at 10 µM at ABHD6 (gel-based competitive ABPP), on FAAH (gel-based competitive ABPP), at MAGL (gel-based competitive ABPP) and at PLA2G7 (gel-based competitive ABPP) was > 75% throughout. Also, the IC50 was > 1000 nM on ABHD6, 100 to 1000 nM at FAAH, > 1000 nM on MAGL and > 1000 nM on PLA2G7.

`CC(=O)N1CCCN(C(=O)n2cc(C#N)cn2)CC1` [Example 177, 1-(4-Acetyl-1,4-diazepane-1-carbonyl)-1H-pyrazole-4-carbonitrile]: the inhibition at 1 µM at ABHD6, on FAAH, on MAGL and on PLA2G7 was < 25% throughout. In addition, the inhibition at 10 µM at ABHD6 is > 75%; at FAAH, > 75%; at MAGL, < 25%; at PLA2G7, > 75%.

Turning to `Cc1cnn(C(=O)NCc2ccc(OCc3ccccc3)cc2)c1` [Example 293, N-(4-(Benzyloxy)benzyl)-4-methyl-1H-pyrazole-1-carboxamide], the inhibition at 1 µM at ABHD6 (gel-based competitive ABPP), on FAAH (gel-based competitive ABPP), on MAGL (gel-based competitive ABPP) and at PLA2G7 (gel-based competitive ABPP) was < 25% throughout.

For `CNC(=O)c1cnn(C(=O)N2CCN(Cc3cccc(Oc4ccccc4)c3)CC2)c1` [Example 287, N-Methyl-1-(4-(3-phenoxybenzyl)piperazine-1-carbonyl)-1H-pyrazole-4-carboxamide], the inhibition at 1 µM at ABHD6 (gel-based competitive ABPP), on FAAH (gel-based competitive ABPP), at MAGL (gel-based competitive ABPP) and on PLA2G7 (gel-based competitive ABPP) was > 75% each time. Besides, the IC50 on ABHD6, on FAAH, on MAGL and on PLA2G7 was < 100 nM in each case.

As to `O=C(c1cnn(C(=O)N2CCN(Cc3cccnc3)CC2)c1)N1CCC1` [Example 88, Azetidin-1-yl(1-(4-(pyridin-3-ylmethyl)piperazine-1-carbonyl)-1H-pyrazol-4-yl)methanone], the inhibition at 10 µM was > 75% at ABHD6, 25 to 75% on FAAH, < 25% at MAGL and > 75% at PLA2G7.

Regarding `N#Cc1cnn(C(=O)N2CCCN(Cc3cccc(Oc4ccccc4)c3)CC2)c1` [Example 299, 1-(4-(3-Phenoxybenzyl)-1,4-diazepane-1-carbonyl)-1H-pyrazole-4-carbonitrile], the inhibition at 1 µM on ABHD6 (gel-based competitive ABPP) is > 75%; on FAAH (gel-based competitive ABPP), > 75%; at MAGL (gel-based competitive ABPP), > 75%; on PLA2G7 (gel-based competitive ABPP), < 25%.

As to `N#Cc1cnn(C(=O)N2CCCN(Cc3cccc(OCc4ccccc4)c3)CC2)c1` [Example 300, 1-(4-(3-(Benzyloxy)benzyl)-1,4-diazepane-1-carbonyl)-1H-pyrazole-4-carbonitrile], the inhibition at 1 µM is > 75% on ABHD6 (gel-based competitive ABPP), > 75% on FAAH (gel-based competitive ABPP), > 75% on MAGL (gel-based competitive ABPP) and < 25% on PLA2G7 (gel-based competitive ABPP).

As to `N#Cc1cnn(C(=O)N2CCN(Cc3ccc(-c4ccccc4)cc3)CC2)c1` [Example 24, 1-(4-([1,1′-Biphenyl]-4-ylmethyl)piperazine-1-carbonyl)-1H-pyrazole-4-carbonitrile], the inhibition at 1 µM on ABHD6, on FAAH, at MAGL and on PLA2G7 was > 75% in each case. Besides, the inhibition at 10 µM on ABHD6, at FAAH, on MAGL and on PLA2G7 was > 75% throughout.

Take `O=C(N1CCN(C(c2ccc(Cl)cc2)c2ccc(Cl)cc2)CC1)n1cc(-c2ccccc2C(F)(F)F)cn1` [Example 123, (4-(Bis(4-chlorophenyl)methyl)piperazin-1-yl)(4-(2-(trifluoromethyl)phenyl)-1H-pyrazol-1-yl)methanone]: the inhibition at 1 µM at ABHD6 is 25 to 75%; on PLA2G7, < 25%. Besides, the inhibition at 10 µM at ABHD6 is > 75%; on FAAH, < 25%; on MAGL, 25 to 75%; on PLA2G7, 25 to 75%.

The record behind these values is patent US10093630B2, “Pyrazole compounds and methods of making and using same” (ABIDE THERAPEUTICS, INC., priority 2014, dated 2018).
